According to publication PMC9186362, “Design and biological evaluation of substituted 5,7-dihydro-6H-indolo[2,3-c]quinolin-6-one as novel selective Haspin inhibitors” (Journal of Enzyme Inhibition and Medicinal Chemistry, 2022):

Columns and labels:
Test in all cases: SelectScreen ZLYTE
Format in all cases: biochemical
ABL1 F317I = ABL1 F317I (Homo sapiens, UniProt P00519, F317I); details: ATP Km, read-out: Percentage of inhibition
Summary of the method: (§1)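 Percent inhibition values come from a one-concentration (1 μM) profiling run covering a wide set of kinases.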

ABL1 G250E = biological target: T1, ABL1 G250E (Homo sapiens, UniProt P00519, G250E); details: ATP Km, read-out: Percentage of inhibition
T1 construct: purchased Life Technologies (SelectScreen Whole Panel service)
Summary of the method: as §1

ADRBK1 (GRK2) = biological target: T2, ADRBK1 (GRK2) (Homo sapiens, UniProt P25098); details: ATP Km, read-out: Percentage of inhibition
T2 construct: purchased Life Technologies (SelectScreen Whole Panel)
T2 sequence (P25098 whole entry): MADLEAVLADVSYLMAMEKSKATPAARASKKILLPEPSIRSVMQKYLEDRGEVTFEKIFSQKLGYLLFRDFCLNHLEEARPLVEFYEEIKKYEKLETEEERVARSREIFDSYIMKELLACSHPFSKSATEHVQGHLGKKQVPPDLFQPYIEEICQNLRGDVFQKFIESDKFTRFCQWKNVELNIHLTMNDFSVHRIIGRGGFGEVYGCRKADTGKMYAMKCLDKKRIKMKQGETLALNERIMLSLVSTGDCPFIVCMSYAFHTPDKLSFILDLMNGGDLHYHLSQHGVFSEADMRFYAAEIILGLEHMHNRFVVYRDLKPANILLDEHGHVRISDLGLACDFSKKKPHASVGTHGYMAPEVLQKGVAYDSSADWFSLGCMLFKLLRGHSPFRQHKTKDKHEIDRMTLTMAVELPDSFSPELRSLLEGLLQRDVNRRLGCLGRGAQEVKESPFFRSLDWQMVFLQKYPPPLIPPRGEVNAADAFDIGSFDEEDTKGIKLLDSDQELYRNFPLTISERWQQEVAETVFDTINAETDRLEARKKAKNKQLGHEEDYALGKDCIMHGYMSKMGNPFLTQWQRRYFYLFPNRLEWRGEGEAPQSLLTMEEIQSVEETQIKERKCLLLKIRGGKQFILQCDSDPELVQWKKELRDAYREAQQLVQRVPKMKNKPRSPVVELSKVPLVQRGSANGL
Summary of the method: as §1

AMPK (A1/B2/G3) = AMPK (A1/B2/G3) (Homo sapiens, UniProt Q13131); details: ATP Km, read-out: Percentage of inhibition
Summary of the method: as §1

AMPK A1/B1/G1 = biological target: T3, AMPK A1/B1/G1 (Homo sapiens, UniProt Q13131); details: ATP Km, read-out: Percentage of inhibition
T3 construct: purchased Life Technologies (SelectScreen Whole Panel service)
Summary of the method: as §1

BRAF V599E = biological target: T4, BRAF V599E (Homo sapiens, UniProt P15056, V600E); details: ATP 100 µM, read-out: Percentage of inhibition
T4 construct: purchased Life Technologies
Summary of the method: as §1

BTK = biological target: T5, BTK (Homo sapiens, UniProt Q06187); details: ATP Km, read-out: Percentage of inhibition
T5 construct: purchased Life Technologies (SelectScreen service)
T5 sequence (Q06187 whole entry): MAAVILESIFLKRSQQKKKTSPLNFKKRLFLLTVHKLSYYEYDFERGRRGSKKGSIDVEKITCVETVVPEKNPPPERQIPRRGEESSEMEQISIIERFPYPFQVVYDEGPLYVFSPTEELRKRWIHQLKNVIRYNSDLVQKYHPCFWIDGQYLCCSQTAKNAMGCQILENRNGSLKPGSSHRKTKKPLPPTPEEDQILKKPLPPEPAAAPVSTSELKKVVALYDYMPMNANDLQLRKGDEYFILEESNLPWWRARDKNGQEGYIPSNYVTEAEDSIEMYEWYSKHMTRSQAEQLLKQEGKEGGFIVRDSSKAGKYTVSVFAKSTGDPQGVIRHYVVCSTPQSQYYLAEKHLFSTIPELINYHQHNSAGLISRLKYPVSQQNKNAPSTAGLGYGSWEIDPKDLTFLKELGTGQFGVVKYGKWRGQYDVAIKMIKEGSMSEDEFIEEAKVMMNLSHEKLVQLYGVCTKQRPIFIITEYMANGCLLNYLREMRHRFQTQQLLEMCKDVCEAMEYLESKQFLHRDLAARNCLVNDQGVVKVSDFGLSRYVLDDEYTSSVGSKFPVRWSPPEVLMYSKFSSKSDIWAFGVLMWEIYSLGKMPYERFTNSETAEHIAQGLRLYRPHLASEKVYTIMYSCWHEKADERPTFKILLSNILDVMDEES
Summary of the method: as §1

CAMK1D (CaMKI delta) = biological target: T6, CAMK1D (CaMKI delta) (Homo sapiens, UniProt Q8IU85); details: ATP Km, read-out: Percentage of inhibition
T6 construct: purchased Life Technologies (SelectScreen)
Summary of the method: as §1

CDK2/cyclin A = biological target: T7, CDK2/cyclin A (Homo sapiens, UniProt P24941); details: ATP Km, read-out: Percentage of inhibition
T7 construct: purchased Life Technologies
Summary of the method: as §1

CHEK1 (CHK1) = CHEK1 (CHK1) (Homo sapiens, UniProt O14757); details: ATP Km, read-out: Percentage of inhibition
Summary of the method: as §1

CSNK1A1L = CSNK1A1L (Homo sapiens, UniProt Q8N752); details: ATP Km, read-out: Percentage of inhibition
CSNK1A1L, sequence (Q8N752 whole entry): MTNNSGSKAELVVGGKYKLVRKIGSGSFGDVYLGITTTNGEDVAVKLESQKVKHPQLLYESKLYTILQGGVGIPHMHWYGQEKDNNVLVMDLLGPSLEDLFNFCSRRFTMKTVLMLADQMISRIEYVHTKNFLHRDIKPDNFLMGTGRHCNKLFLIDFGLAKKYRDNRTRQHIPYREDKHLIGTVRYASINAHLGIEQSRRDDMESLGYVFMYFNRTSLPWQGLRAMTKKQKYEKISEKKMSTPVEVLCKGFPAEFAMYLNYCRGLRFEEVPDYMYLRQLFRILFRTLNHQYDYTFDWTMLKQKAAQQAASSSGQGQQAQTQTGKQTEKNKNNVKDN
Summary of the method: as §1

EGFR (ErbB1) G719S = biological target: T8, EGFR (ErbB1) G719S (Homo sapiens, UniProt P00533, G719S); details: ATP Km, read-out: Percentage of inhibition
T8 construct: purchased Life Technologies (SelectScreen Whole Panel service)
Summary of the method: as §1

[1] = biological target: EGFR (ErbB1) T790M C797S L858R (Homo sapiens, UniProt P00533, C797S/L858R/T790M); details: ATP Km, read-out: Percentage of inhibition
Summary of the method: as §1

EPHA1 = biological target: T9, EPHA1 (Homo sapiens, UniProt P21709); details: ATP Km, read-out: Percentage of inhibition
T9 construct: purchased Life Technologies
Summary of the method: as §1

EPHA4 = biological target: T10, EPHA4 (Homo sapiens, UniProt P54764); details: ATP Km, read-out: Percentage of inhibition
T10 construct: purchased Life Technologies (SelectScreen)
Summary of the method: as §1

EPHA8 = biological target: T11, EPHA8 (Homo sapiens, UniProt P29322); details: ATP Km, read-out: Percentage of inhibition
T11 construct: purchased Life Technologies (SelectScreen Whole Panel service)
Summary of the method: as §1

EPHB2 = EPHB2 (Homo sapiens, UniProt P29323); details: ATP Km, read-out: Percentage of inhibition
Summary of the method: as §1

ERBB2 (HER2) = biological target: T12, ERBB2 (HER2) (Homo sapiens, UniProt P04626); details: ATP Km, read-out: Percentage of inhibition
T12 construct: purchased Life Technologies
Summary of the method: as §1

GSK3B (GSK3 beta) = biological target: T13, GSK3B (GSK3 beta) (Homo sapiens, UniProt P49841); details: ATP Km, read-out: Percentage of inhibition
T13 construct: purchased Life Technologies (SelectScreen service)
T13 sequence (P49841 whole entry): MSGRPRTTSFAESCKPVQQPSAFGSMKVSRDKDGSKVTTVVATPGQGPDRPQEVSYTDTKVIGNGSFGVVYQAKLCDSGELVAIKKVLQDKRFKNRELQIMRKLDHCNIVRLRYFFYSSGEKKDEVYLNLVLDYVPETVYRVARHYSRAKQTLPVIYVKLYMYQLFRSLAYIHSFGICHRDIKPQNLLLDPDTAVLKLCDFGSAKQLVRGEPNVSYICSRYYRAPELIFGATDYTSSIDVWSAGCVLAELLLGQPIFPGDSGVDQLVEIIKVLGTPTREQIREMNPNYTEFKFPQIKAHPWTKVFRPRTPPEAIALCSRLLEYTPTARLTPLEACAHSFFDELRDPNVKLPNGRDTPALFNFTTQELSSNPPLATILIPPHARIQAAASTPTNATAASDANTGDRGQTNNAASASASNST
Summary of the method: as §1

HCK = biological target: T14, HCK (Homo sapiens, UniProt P08631); details: ATP Km, read-out: Percentage of inhibition
T14 construct: purchased Life Technologies
T14 sequence (P08631 whole entry): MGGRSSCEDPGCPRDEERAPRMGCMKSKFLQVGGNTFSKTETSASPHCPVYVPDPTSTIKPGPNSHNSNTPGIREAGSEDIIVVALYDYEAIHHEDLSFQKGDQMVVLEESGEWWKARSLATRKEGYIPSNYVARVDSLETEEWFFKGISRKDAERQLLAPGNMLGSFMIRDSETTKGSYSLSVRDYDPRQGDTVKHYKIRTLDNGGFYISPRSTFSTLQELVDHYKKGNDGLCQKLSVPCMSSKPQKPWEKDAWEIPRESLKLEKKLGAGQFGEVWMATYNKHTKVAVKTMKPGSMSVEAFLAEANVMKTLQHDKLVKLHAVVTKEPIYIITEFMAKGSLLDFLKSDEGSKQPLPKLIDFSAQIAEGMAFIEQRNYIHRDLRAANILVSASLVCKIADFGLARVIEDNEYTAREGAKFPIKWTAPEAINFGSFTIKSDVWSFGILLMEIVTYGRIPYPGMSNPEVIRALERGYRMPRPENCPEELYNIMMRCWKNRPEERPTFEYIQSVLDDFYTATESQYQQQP
Summary of the method: as §1

HIPK1 (Myak) = HIPK1 (Myak) (Homo sapiens, UniProt Q86Z02); details: ATP Km, read-out: Percentage of inhibition
Summary of the method: as §1

IKBKB (IKK beta) = biological target: T15, IKBKB (IKK beta) (Homo sapiens, UniProt O14920); details: ATP Km, read-out: Percentage of inhibition
T15 construct: purchased Life Technologies (SelectScreen Whole Panel)
Summary of the method: as §1

IKBKE (IKK epsilon) = biological target: T16, IKBKE (IKK epsilon) (Homo sapiens, UniProt Q14164); details: ATP Km, read-out: Percentage of inhibition
T16 construct: purchased Life Technologies (SelectScreen Whole Panel service)
Summary of the method: as §1

LYN A = biological target: T17, LYN A (Homo sapiens, UniProt P07948); details: ATP Km, read-out: Percentage of inhibition
T17 construct: purchased Life Technologies (SelectScreen Whole Panel)
T17 sequence (P07948 whole entry): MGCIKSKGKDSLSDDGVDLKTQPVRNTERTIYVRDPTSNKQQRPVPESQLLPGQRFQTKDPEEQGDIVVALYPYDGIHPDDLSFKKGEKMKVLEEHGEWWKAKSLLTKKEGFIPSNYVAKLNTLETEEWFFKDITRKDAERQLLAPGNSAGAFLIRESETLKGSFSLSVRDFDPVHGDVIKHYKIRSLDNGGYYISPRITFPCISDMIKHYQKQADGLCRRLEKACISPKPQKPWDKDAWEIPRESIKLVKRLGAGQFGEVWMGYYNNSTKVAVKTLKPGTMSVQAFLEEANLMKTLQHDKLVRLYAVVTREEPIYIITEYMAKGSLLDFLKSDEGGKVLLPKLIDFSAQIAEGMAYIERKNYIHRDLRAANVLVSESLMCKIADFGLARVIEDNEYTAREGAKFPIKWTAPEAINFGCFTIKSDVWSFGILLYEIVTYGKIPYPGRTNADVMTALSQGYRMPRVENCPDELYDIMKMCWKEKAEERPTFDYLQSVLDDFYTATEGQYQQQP
Summary of the method: as §1

MAP2K2 (MEK2) = biological target: T18, MAP2K2 (MEK2) (Homo sapiens, UniProt P36507); details: ATP 100 µM, read-out: Percentage of inhibition
T18 construct: purchased Life Technologies
Summary of the method: as §1

MAP4K5 (KHS1) = biological target: T19, MAP4K5 (KHS1) (Homo sapiens, UniProt Q9Y4K4); details: ATP Km, read-out: Percentage of inhibition
T19 construct: purchased Life Technologies (SelectScreen service)
Summary of the method: as §1

MAPK11 (p38 beta) = biological target: T20, MAPK11 (p38 beta) (Homo sapiens, UniProt Q15759); details: ATP Km, read-out: Percentage of inhibition
T20 construct: purchased Life Technologies (SelectScreen)
T20 sequence (Q15759 whole entry): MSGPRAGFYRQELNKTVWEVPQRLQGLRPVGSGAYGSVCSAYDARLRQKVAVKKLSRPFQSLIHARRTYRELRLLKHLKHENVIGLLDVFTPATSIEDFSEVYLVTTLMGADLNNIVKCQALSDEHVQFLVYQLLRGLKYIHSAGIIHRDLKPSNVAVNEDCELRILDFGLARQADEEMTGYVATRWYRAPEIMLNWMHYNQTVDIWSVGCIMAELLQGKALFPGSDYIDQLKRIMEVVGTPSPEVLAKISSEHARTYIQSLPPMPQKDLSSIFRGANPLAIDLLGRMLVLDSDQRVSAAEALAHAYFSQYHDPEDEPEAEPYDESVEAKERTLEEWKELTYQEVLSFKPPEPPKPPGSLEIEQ
Summary of the method: as §1

MAPK14 (p38 alpha) = biological target: T21, MAPK14 (p38 alpha) (Homo sapiens, UniProt Q16539); details: ATP 100 µM, read-out: Percentage of inhibition
T21 construct: purchased Life Technologies (SelectScreen Whole Panel service)
Summary of the method: as §1

[2] = biological target: MAPK14 (p38 alpha) Direct (Homo sapiens, UniProt Q16539); details: ATP Km, read-out: Percentage of inhibition
Summary of the method: as §1

MINK1 = MINK1 (Homo sapiens, UniProt Q8N4C8); details: ATP Km, read-out: Percentage of inhibition
Summary of the method: as §1

PDGFRA T674I = PDGFRA T674I (Homo sapiens, UniProt P16234, T674I); details: ATP Km, read-out: Percentage of inhibition
Summary of the method: as §1

PHKG1 = biological target: T22, PHKG1 (Homo sapiens, UniProt Q16816); details: ATP Km, read-out: Percentage of inhibition
T22 construct: purchased Life Technologies
Summary of the method: as §1

PLK3 = biological target: T23, PLK3 (Homo sapiens, UniProt Q9H4B4); details: ATP Km, read-out: Percentage of inhibition
T23 construct: purchased Life Technologies (SelectScreen service)
T23 sequence (Q9H4B4 whole entry): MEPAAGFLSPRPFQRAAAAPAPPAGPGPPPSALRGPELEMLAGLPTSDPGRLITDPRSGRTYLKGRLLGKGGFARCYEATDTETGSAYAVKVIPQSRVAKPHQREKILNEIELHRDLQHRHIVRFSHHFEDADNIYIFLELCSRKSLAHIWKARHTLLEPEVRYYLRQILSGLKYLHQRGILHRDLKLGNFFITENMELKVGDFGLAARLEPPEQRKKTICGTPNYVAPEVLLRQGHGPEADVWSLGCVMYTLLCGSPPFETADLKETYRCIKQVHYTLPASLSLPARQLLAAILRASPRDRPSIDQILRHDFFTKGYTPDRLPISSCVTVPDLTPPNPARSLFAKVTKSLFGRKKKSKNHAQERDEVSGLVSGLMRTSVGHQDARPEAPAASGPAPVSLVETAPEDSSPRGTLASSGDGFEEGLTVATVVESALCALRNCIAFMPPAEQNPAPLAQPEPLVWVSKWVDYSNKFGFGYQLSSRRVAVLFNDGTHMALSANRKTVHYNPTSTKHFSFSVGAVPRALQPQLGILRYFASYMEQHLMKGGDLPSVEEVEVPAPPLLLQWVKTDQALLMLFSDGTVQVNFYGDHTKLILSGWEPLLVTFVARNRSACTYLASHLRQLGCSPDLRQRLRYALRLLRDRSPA
Summary of the method: as §1

PRKCE (PKC epsilon) = biological target: T24, PRKCE (PKC epsilon) (Homo sapiens, UniProt Q02156); details: ATP Km, read-out: Percentage of inhibition
T24 construct: purchased Life Technologies (SelectScreen Whole Panel service)
Summary of the method: as §1

PRKCI (PKC iota) = PRKCI (PKC iota) (Homo sapiens, UniProt P41743); details: ATP Km, read-out: Percentage of inhibition
Summary of the method: as §1

PRKG1 = biological target: T25, PRKG1 (Homo sapiens, UniProt Q13976); details: ATP Km, read-out: Percentage of inhibition
T25 construct: purchased Life Technologies (SelectScreen Whole Panel service)
Summary of the method: as §1

PTK6 (Brk) = PTK6 (Brk) (Homo sapiens, UniProt Q13882); details: ATP Km, read-out: Percentage of inhibition
Summary of the method: as §1

TXK = TXK (Homo sapiens, UniProt P42681); details: ATP Km, read-out: Percentage of inhibition
TXK, sequence (P42681 whole entry): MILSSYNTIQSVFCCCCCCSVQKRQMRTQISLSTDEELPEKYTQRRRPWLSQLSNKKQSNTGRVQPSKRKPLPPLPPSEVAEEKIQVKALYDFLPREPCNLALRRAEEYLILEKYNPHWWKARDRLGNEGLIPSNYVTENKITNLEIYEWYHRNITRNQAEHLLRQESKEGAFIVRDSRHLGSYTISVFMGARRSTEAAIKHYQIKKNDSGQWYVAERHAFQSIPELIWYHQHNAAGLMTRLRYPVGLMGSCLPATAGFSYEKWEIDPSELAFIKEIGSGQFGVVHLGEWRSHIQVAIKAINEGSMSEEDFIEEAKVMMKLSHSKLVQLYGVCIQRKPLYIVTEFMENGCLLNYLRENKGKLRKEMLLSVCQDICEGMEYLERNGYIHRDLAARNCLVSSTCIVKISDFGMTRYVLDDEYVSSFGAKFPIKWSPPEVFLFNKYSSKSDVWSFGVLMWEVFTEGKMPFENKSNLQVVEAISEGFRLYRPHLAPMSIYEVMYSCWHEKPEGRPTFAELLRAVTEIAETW
Summary of the method: as §1

COc1ccc2[nH]c3c(=O)[nH]c4ccc(O)cc4c3c2c1 [Compound 55, 2-Hydroxy-10-methoxy-5,7-dihydro-6H-indolo[2,3-c]quinolin-6-one]
inhibition at 1 µM (ABL1 F317I): 14%
inhibition at 1 µM (ABL1 G250E): 48%
inhibition at 1 µM (ADRBK1 (GRK2)): -3%
inhibition at 1 µM (AMPK (A1/B2/G3)): 67%
inhibition at 1 µM (AMPK A1/B1/G1): 47%
inhibition at 1 µM (BRAF V599E): 96%
inhibition at 1 µM (BTK): 24%
inhibition at 1 µM (CAMK1D (CaMKI delta)): 8%
inhibition at 1 µM (CDK2/cyclin A): 34%
inhibition at 1 µM (CHEK1 (CHK1)): 19%
inhibition at 1 µM (CSNK1A1L): 62%
inhibition at 1 µM (EGFR (ErbB1) G719S): 11%
inhibition at 1 µM [1]: 13%
inhibition at 1 µM (EPHA1): 33%
inhibition at 1 µM (EPHA4): 7%
inhibition at 1 µM (EPHA8): 10%
inhibition at 1 µM (EPHB2): 21%
inhibition at 1 µM (ERBB2 (HER2)): 2%
inhibition at 1 µM (GSK3B (GSK3 beta)): 81%
inhibition at 1 µM (HCK): 38%
inhibition at 1 µM (HIPK1 (Myak)): 58%
inhibition at 1 µM (IKBKB (IKK beta)): 55%
inhibition at 1 µM (IKBKE (IKK epsilon)): 17%
inhibition at 1 µM (LYN A): 49%
inhibition at 1 µM (MAP2K2 (MEK2)): 87%
inhibition at 1 µM (MAP4K5 (KHS1)): 90%
inhibition at 1 µM (MAPK11 (p38 beta)): 8%
inhibition at 1 µM (MAPK14 (p38 alpha)): 12%
inhibition at 1 µM [2]: 6%
inhibition at 1 µM (MINK1): 66%
inhibition at 1 µM (PDGFRA T674I): 6%
inhibition at 1 µM (PHKG1): 32%
inhibition at 1 µM (PLK3): 25%
inhibition at 1 µM (PRKCE (PKC epsilon)): 10%
inhibition at 1 µM (PRKCI (PKC iota)): 6%
inhibition at 1 µM (PRKG1): 11%
inhibition at 1 µM (PTK6 (Brk)): 19%
inhibition at 1 µM (TXK): 22%
